The record followed here is patent US8846704B2, “Thiopyrimidine-based compounds and uses thereof” (YM Biosciences Austraila Pty Ltd, priority 2007, dated 2014).

Where only a bound is given, the exact number is not on record here.

The assay has as its target T1, FLT-3 tyrosine kinase (Homo sapiens, UniProt P36888).
T1 construct: purchased Upstate Cell Signalling Solutions, CA, USA 14-500
T1 sequence (P36888 27-993): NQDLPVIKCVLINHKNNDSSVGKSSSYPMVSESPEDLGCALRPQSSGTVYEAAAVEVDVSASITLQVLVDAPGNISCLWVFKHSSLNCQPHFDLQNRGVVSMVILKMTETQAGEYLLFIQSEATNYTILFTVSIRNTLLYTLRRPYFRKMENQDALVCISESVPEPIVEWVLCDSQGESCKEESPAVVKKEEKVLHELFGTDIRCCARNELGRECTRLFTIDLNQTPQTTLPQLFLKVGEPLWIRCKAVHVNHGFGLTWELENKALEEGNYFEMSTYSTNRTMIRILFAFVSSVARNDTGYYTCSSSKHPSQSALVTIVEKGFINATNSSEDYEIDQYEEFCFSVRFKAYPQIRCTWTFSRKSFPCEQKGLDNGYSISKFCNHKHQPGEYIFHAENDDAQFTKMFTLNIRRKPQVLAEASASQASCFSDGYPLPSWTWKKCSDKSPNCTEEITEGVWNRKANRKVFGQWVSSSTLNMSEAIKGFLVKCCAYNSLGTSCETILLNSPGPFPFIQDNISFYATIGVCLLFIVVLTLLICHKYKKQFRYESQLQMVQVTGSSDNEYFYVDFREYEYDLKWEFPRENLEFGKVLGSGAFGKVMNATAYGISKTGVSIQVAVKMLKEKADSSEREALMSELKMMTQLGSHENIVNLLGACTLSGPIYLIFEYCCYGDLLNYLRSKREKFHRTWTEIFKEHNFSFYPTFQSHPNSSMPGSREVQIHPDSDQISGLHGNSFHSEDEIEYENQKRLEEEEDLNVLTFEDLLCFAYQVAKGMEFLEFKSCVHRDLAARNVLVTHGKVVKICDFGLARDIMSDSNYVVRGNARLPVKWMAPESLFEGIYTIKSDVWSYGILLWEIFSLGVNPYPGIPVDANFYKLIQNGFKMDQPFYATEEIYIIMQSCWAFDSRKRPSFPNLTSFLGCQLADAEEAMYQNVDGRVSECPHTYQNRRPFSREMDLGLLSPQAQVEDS
In words: Alphascreen tyrosine kinase enzyme assay, FLT-3. In kind it is biochemical. The settings on record: FLT3; read-out: FMS, FLT3, or HCK IC50_nM (FLT3). The method, then:
For screening purposes, compounds (in 100% DMSO) were warmed at 37 degrees for at least 20 minutes before use. A […] stock was initially made in assay buffer, where the final concentration of DMSO was 0.3%. The stocks were then diluted in 384 well Optiplates (Packard) where the final concentration of the compound was […].
FLT-3 tyrosine kinase enzyme was purchased from Upstate Cell Signalling Solutions, CA, USA (flt-3 catalog #: 14-500).
Kinase assays were performed in 384 well Optiplates (Packard) using an Alphascreen Protein Tyrosine Kinase PY100 detection kit The compounds were pre-incubated with affinity purified PTK domain in the presence of phosphotyrosine assay buffer (10 mM HEPES, pH 7.5, 100 mM MgCl2, 25 mM NaCl, […] and 0.1% Tween 20) for 20 minutes. The compounds were then incubated with substrate in the presence of ATP. The substrate used was susbtrate-1 with the sequence biotin-EGPWLEEEEEAYGWMDF-NH2 [SEQ. ID. NO. 13] (final concentration […]). For HCK 80 μm ATP was used and incubated for 60 minutes. Alphascreen phosphotyrosine acceptor beads followed by streptavidin donor beads at a concentration of 1/100 in stop buffer were added to each well under subdued light and incubated for 2-3 hours., The Alphascreen plates were read on a Packard Fusion Alpha instrument.

Consider `COc1cc(Nc2nccc(Sc3ccc(NCC#N)cc3)n2)cc(OC)c1OC` [Compound 52, 2-(4-(2-(3,4,5-trimethoxyphenylao)pyrimidin-4-ylthio)phenylao)acetonitrile], for which the IC50 is less than 500 nM.
